Laboratory results as given in patent US4540696A, “1-Piperazinyl 4-phenylquinazoline compounds having antidepressant properties and drugs containing same” (Sanofi S.A., priority 1982, dated 1985).

Assays:
[1] = test system: ptosis induced by reserpine; experiment: Antagonism of ptosis induced by reserpine; format: in vivo, female mouse, CDI (Charles Rivers, France); settings: reserpine 2 mg/kg intravenous, 1 hour; for ED50: Mus musculus, po, per os, read-out: Antagonism of ptosis induced by reserpine, ED 50
Experimental: The majority of antidepressants antagonize the ptosis induced by reserpine. This test described by Gouret [Journal de Pharmacologie (Paris), 1973, 4(1), 105-128] was made in the female mouse, CDI (Charles Rivers, France) weighing from 18 to 23 g. The reserpine causes a ptosis 1 hour after its intravenous administration; certain antidepressants, particularly the imipraminics, oppose this ptosis.
The following protocol has been chosen:
The substances to be studied were administered per os to batches of 10 mice. The reserpine was administered simultaneously by the intravenous route at the dose of 2 mg/kg. 1 hour after the administration of reserpine, the number of animals not presenting ptosis is noted.

[2] = test system: hypothermia induced by reserpine; experiment: Antagonism of the hypothermia induced by reserpine; format: in vivo, female mice, CDI (Charles Rivers, France); settings: reserpine 5 mg/kg i.p., 4 hours
Experimental: The majority of antidepressants antagonize the hypothermia induced by reserpine. This test was carried out according to the method described by HINO et Coll [Chem Pharm Bull 28 (9), 2618-2622, 1980] on female mice, CDI (Charles Rivers, France) weighing from 18 to 23 g.
(§1) The following protocol was chosen:
The substances to be studied are administered per os to batches of 10 mice, the controls receive the solvent along, simultaneously, the reserpine is administered i.p. at the dose of 5 mg/kg. The temperature of each animal is taken immediately before administration of the products to be tested and 4 hours afterwards. For each animal, the difference in temperature before and after treatment is calculated. The results are expressed in percentage of antagonism of the hypothermia observed in the controls.

[3] = Toxicity; format: in vivo; settings: per os; for Toxicity: in words (atoxic at the stated dose)
[4] = Pharmacological trials on the central nervous system (tests A to E, overall statement); format: in vivo, female mice, CDI (Charles Rivers, France); settings: overall statement on Table II
Experimental: The products according to the invention have been subjected to pharmacological trials with a view to determining their activity on the central nervous system.
The various tests to which the products have been subjected will be indicated hereinbelow. In all cases, the products under study were administered per os.

[5] = Porsolt test (despair reaction, reduction in immobilization time); format: in vivo, female mouse, CDI (Charles Rivers, France); settings: per os, 1 hour before test
Experimental: This test was carried out in the female mouse, CDI (Charles Rivers, France) weighing from 18 to 23 g, according to the method described by Porsolt (Archives Internationales de Pharmacologie, 1977, 229, 327-336).
The principle of this test is as follows: when a mouse is placed in a narrow recipient, filled with water, it struggles and then, after 2 to 4 minutes, becomes still and floats on its stomach, its back rounded and its rear paws brought underneath its body; it makes only the few movements to enable it to hold its head out of the water. This is the so-called despair reaction.
Certain psychotherapeutics, particularly antidepressants, lengthen the time during which the mouse struggles.
as §1
The products to be studied were administered orally to batches of 10 mice. 1 hour later, the animals are placed in a narrow receipient (10×10×10 cm), filled with water up to a height of 6 cm, the temperature of the water being 24° C. The animals are left in the water for 6 minutes and the time during which the animal remains immobile between the second and the sixth minute is measured--the shorter the time, the more the substance is active.
The results are expressed as the reduction in the immobilization time with respect to controls.

[6] = test system: toxicity of yohimbine; experiment: Potentialization of the toxicity of yohimbine; format: in vivo, female mice, CDI (Charles Rivers, France); settings: Mus musculus, po, 18 h, read-out: Potentialization of yohimbine, ED 50
Experimental: The majority of antidepressants potentialize the toxicity of yohimbine. This test was carried out according to the method described by MALICK (in Antidepressants: Neurochemical Behavioural and Clinical Perspectives, eds S. J. Enna, J. B. Malick, E. Richelson, Raven Press, New York, pages 141-153) on female mice, CDI (Charles Rivers, France).
The substances to be studied are administered per os to batches of 10 mice. The yohimbine is administered i.p. 1 hour later at the dose of 30 mg/kg. Mortality is noted 18 hours later.

[7] = test system: tremors induced by oxotremorine; experiment: Antagonism of the tremors induced by oxotremorine; format: in vivo, female mice, CDI (Charles Rivers, France); settings: Mus musculus, po, 0.5 h; per os; oxotremorine 1 mg/kg per os at 60 mins., read 30 mins. later; read-out: Antagonism of oxotremorine, ED 50
Experimental: This test was carried out on female mice, CDI (Charles Rivers, France) weighing from 18 to 23 g.
as §1
The products to be studied are administered at time 0 by the oral route to batches of 10 mice. At time 60 mins., the oxotremorine is administered per os at the dose of 1 mg/kg.

[8] = 10 mg/kg, ** p < 0.01 (all but 40 460, which has *)
[9] = at 10 mg/kg per os, ** p < 0.01

For OC1CCN(c2nc(-c3ccccc3Cl)c3cc(Cl)ccc3n2)CC1 [40 331, 6-chloro 4-(2-chlorophenyl) 2-(4-hydroxy 1-piperidinyl) quinazoline, reference compound], the “Antagonism of ptosis induced by reserpine, percentage” value ([1]; at 100 mg/kg per os) was 0%, the “Antagonism of hypothermia induced by reserpine, percentage of antagonism” value (from here on “Antagonism … percentage of antagonism”) ([2]; at 100 mg/kg per os) was -20% and the Toxicity [3] was “Atoxic at 500 mg/kg”. The “Activity on the tests carried out” value [4] was “virtually inactive”.

In the case of CN1CCN(c2nc(-c3ccccc3Cl)c3cc(Cl)ccc3n2)CC1 [40 460], the “Porsolt test: reduction in the immobilization time with respect to controls” value (“Porsolt test: reduction” below) [5, 8] is reported as -11%, the ED50 [1] is reported as 2.1 mg/kg and the “Antagonism … percentage of antagonism” value ([2]; at 20 mg/kg per os, ** p < 0.01) is reported as “+71%”. For the same compound, the ED50 [6] was 5.4 mg/kg, the ED50 [7] was 142 mg/kg and the “Toxicity: LD 80” value [3] was 1000 mg/kg.

In the case of CN1CCN(c2nc(-c3ccccc3F)c3cc(Cl)ccc3n2)CC1 [40 468], the “Porsolt test: reduction” value [5, 8] is reported as -61%, the ED50 [1] is reported as 0.98 mg/kg and the “Antagonism … percentage of antagonism” value [2, 9] is reported as “+73%”. The ED50 [6] was 1.65 mg/kg, the ED50 [7] was 50 mg/kg and the Toxicity [3] was “Atoxic at 1 g/kg”.

In the case of CN1CCN(c2nc(-c3ccccc3Cl)c3cc([N+](=O)[O-])ccc3n2)CC1 [40 498, 2-(1-methyl 4-piperazinyl) 4-(2-chlorophenyl) 6-nitro quinazoline], the “Porsolt test: reduction” value [5, 8] is reported as -31%, the ED50 [1] is reported as 2.8 mg/kg and the “Antagonism … percentage of antagonism” value [2, 9] is reported as “+68%”. For the same compound, the ED50 [6] was 7.8 mg/kg, the ED50 [7] was 43.5 mg/kg and the Toxicity [3] was “Atoxic at 1 g/kg”.

For Fc1ccccc1-c1nc(N2CCNCC2)nc2ccc(Cl)cc12 [41 125], the “Porsolt test: reduction” value ([5]; 5 mg/kg, ** p < 0.01) was -46, the ED50 [1] was 0.48 mg/kg and the “Antagonism … percentage of antagonism” value [2, 9] was “+81%”. For the same compound, the ED50 [6] was 0.74 mg/kg, the ED50 [7] was 9.5 mg/kg and the “Toxicity: LD 40” value [3] was 1000 mg/kg.

In the case of CCCN1CCN(c2nc(-c3ccccc3F)c3cc(Cl)ccc3n2)CC1 [41 128], the “Porsolt test: reduction” value ([5]; 5 mg/kg, ** p < 0.01) is reported as -31, the ED50 [1] is reported as 6.2 mg/kg and the “Antagonism … percentage of antagonism” value [2, 9] is reported as “+62%”. The ED50 [6] was 1.7 mg/kg and the Toxicity [3] was “Atoxic at 1 g/kg”.

In the case of CN(C)CCCN1c2ccccc2CCc2ccccc21 [Imipramine, reference compound], the “Porsolt test: reduction” value [5, 8] is reported as -30%, the ED50 [1] is reported as 2.4 mg/kg and the “Antagonism … percentage of antagonism” value [2, 9] is reported as “+59%”. For the same compound, the ED50 [7] was 12 mg/kg.
